Patent US11125741B2, “Compositions and methods for the detection of zinc” (Northwestern University, priority 2012, dated 2021)

Legend:
mouse eggs [1] = assay: Time-lapse imaging of zinc sparks and calcium transients in parthenogenetically activated eggs; assay type: cell-based
Protocol: Time-lapse imaging of parthenogenetically activated eggs. Eggs were first incubated in 10 μM Calcium Green-1 AM (Invitrogen) and 0.04% (w/v) Pluronic F-127 (Invitrogen) for either 30 min (mouse) or 60 min (non-human primate) at 37° C. Mouse eggs were washed in calcium-free KSOM (Millipore) and transferred to a 50 μl drop containing 10 mM SrCl2 (Sigma-Aldrich) and 50 μM FluoZin-3 (Invitrogen) on a glass-bottom dish (Bioptechs Inc.). Non-human primate eggs were transferred to one end of a long and shallow drop (20 μl) of calcium-free KSOM (Millipore) containing 50 μM FluoZin-3 (Invitrogen) on a glass-bottom dish (Bioptechs Inc.), covered with oil for embryo culture (Irvine Scientific, Santa Ana, Calif.). Ionomycin was perfused in at the opposite end to a final concentration of 20 μM. In both cases, image acquisition began immediately and occurred every 4 s for a total of 1-3 hours (mouse) or 15 min (non-human primate), unless noted otherwise. All images were acquired on a TCS SP5 confocal microscope (Leica Microsystems) equipped with a stage top incubator (Tokai Hit), 20× objective, and an Ar (488 nm) laser line.
Additional experiments were consistent with this determination. […] Second, zinc sparks were absent in eggs treated with the membrane permeable acetoxymethyl ester (AM) derivative of 1,2-bis(o-aminophenoxy)ethane-N,N,N′,N′-tetraacetic acid (BAPTA).
The polarization of the zinc-enriched vesicles mirrors that of the cortical granules (CG), which are exocytic vesicles that participate in the cortical reaction, which involves the hardening of the zona pellucida to establish a block to polyspermy at fertilization (Ducibella. (1996) Hum Reprod Update 2, 29-42.; herein incorporated by reference in its entirety). […] In most cases, subsequent sparks were inhibited (SEE FIG. 9). Experiments conducted during development of embodiments of the present invention indicate that zinc-containing vesicles are pre-fused with the egg membrane, allowing the first spark to occur even in the presence of CytoB. This type of phenomenon has been described for cortical granules in the sea urchin egg, where one subset of CGs are in a hemifused state prior to activation21.

[2] = Gee et al. 2002; cited from earlier work
mouse eggs [3] = assay: TPEN treatment and spindle imaging of mouse eggs; assay type: cell-based; settings: 10 μM, 8 hrs of culture
Protocol: FIGS. 12a-e show perturbation of intracellular zinc availability causes activation of the egg. Following 8 hours of culture, control eggs maintain a metaphase II spindle (a, sp) with individual chromosomes aligned at the metaphase plate (b). In contrast, eggs exposed to 10 μM TPEN for the same period artificially activate as indicated by the formation of an intact pronucleus (c, pn) with decondensed chromatin surrounding a nucleolus (d).
TPEN treatment and spindle imaging of mouse eggs. Superovulated eggs were collected and transferred to KSOM medium (Millipore) with or without 10 μM TPEN and cultured up to 8 hrs at 37° C. in an atmosphere of 5% CO2 in air. […] Eggs were fixed and permeabilized for 30 min at 37° C. in a solution containing 2% formaldehyde, 2% Triton X-100, 100 mM PIPES, 5 mM MgCl2, and 2.4 mM EGTA. Eggs were then washed and blocked for 1-3 hrs in 1× PBS containing 0.1 M glycine, 3 mg/mL BSA, 0.01% Tween-20, and 0.01% sodium azide followed by incubation with […] (1:100, Sigma) in blocking buffer for 1 hr at 37° C. Eggs were washed again in blocking buffer, incubated in Alexa Fluor 488-conjugated goat anti-mouse IgG (Invitrogen) and rhodamine-phalloidin conjugate (Invitrogen) at 37° C. for 1 hr, washed three additional times, and mounted on microscopy slides with coverslips in Vectashield with DAPI. […]

[4] = pM reflects the log of the free ion concentration; cited from earlier work
activated mouse eggs = settings: 10 μM, 10 min at 1.5 hpa
[5] = treated prior to strontium chloride activation

In the case of `CC(=O)OCOC(=O)CN(CC(=O)OCOC(C)=O)c1ccccc1OCCOc1ccccc1N(CC(=O)OCOC(C)=O)CC(=O)OCOC(C)=O` [BAPTA AM], the “parthenogenetic activation on long-term exposure” value (mouse eggs [1]; 10 μM) is reported as “did not parthenogenetically activate eggs”, the “calcium transients and zinc sparks” value (mouse eggs [1]; extended culture in strontium chloride) is reported as “both calcium transients and zinc sparks were absent” and the “second polar body extrusion and pronucleus formation” value (mouse eggs [1]; strontium chloride activation) is reported as “did not extrude a second polar body or form a pronucleus”.

In the case of `C=C1[C@@H](C)[C@H]2[C@H](Cc3ccccc3)NC(=O)[C@]23OC(=O)/C=C/[C@H](O)CCC[C@@H](C)C/C=C/[C@H]3[C@@H]1O` [CytoB, cytochalasin B], the “calcium oscillations upon activation” value (mouse eggs [1]; [5]) is reported as “normal calcium oscillations” and the “zinc sparks upon activation” value (mouse eggs [1]; [5]) is reported as “only exhibit a single zinc spark”.

In the case of `COc1ccc(N(CC(=O)O)CC(=O)O)c(OCCOc2cc(-c3c4cc(F)c(=O)cc-4oc4cc(O)c(F)cc34)ccc2NCC(=O)O)c1` [FluoZin-3], the “fluorescence turn-on for Zn” value [2] is listed as 80 fold.

In the case of `c1ccc(CN(CCN(Cc2ccccn2)Cc2ccccn2)Cc2ccccn2)nc1` [TPEN], the “egg activation (pronucleus-like structure)” value (mouse eggs [3]) is reported as “had a pronucleus-like structure at significantly higher rates” and the “zinc sparks in zinc-insufficient eggs” value (mouse eggs [1]; oocytes treated during in vitro maturation, then activated) is reported as “did not undergo zinc sparks”.

In the case of `CCOC(=O)COc1cc(NS(=O)(=O)c2ccc(C)cc2)c2nc(C)ccc2c1` [zinquin ethyl ester], the pM value [4] is listed as 9.3.

For carbonic anhydrase, the pM value [4] is given as 12.4.

For zinc pyrithione [ZnPT], the “eggs lacking a pronucleus with aligned chromosomes” value (activated mouse eggs) was “eighty-four” and the “eggs that formed a pronucleus” value (activated mouse eggs; scored 6-8 hpa) was “seventeen”.
